Where “and” joins values, the source holds several entries; their conditions need not be identical. Equal values may be shown once. Read-outs that look alike come from different tables or passages of the source.
Columns and labels:
[1] = mean population model parameter; cited from earlier work
[2] = paracetamol alone vs with semaglutide; cited from earlier work
[3] = immediate release tablets, cited from earlier work
[4] = final model with semaglutide covariate
[5] = model without semaglutide covariate
[6] = semaglutide 1.0 mg s.c. once weekly at steady state
[7] = young adults, body weight 62–84 kg

CC(C)c1c(C(=O)Nc2ccccc2)c(-c2ccccc2)c(-c2ccc(F)cc2)n1CC[C@@H](O)C[C@@H](O)CC(=O)O [atorvastatin]
T50 estimate (atorvastatin with semaglutide): 83 min
T50 (atorvastatin with semaglutide (Figure 8)): 1.38 h
T50 estimate (atorvastatin without semaglutide): 16 min
ka (Placebo), Bootstrap mean [95%CI] (bootstrap 1000 replicates): 6.56 [3.29–12.1] h^−1
ktr (Placebo), Bootstrap mean [95%CI] (bootstrap 1000 replicates): 10.4 [4.48–44.0] h^−1
Θkacovariate, Bootstrap mean [95%CI] (bootstrap 1000 replicates): 0.821 [0.649–0.925]
Θktrcovariate, Bootstrap mean [95%CI] (bootstrap 1000 replicates): 0.820 [0.629–0.972]
ω^2 Ka, Bootstrap mean [95%CI] (bootstrap 1000 replicates): 2.21 [1.41–3.32]
ω^2 Ktr, Bootstrap mean [95%CI] (bootstrap 1000 replicates): 1.82 [0.390–3.17]
Between subject variability ω^2 Ka, Estimates [4]: 2.03
Between subject variability ω^2 Ktr, Estimates [4]: 1.82
Θkacovariate, Estimates (fractional reduction of ka with semaglutide (dKadplacebo)): 0.829
Θktrcovariate, Estimates (fractional reduction of ktr with semaglutide (dKtrdplacebo)): 0.791
BSV variance (Omega^2) for ka before semaglutide covariate [5]: 3.29
BSV variance (Omega^2) for ktr before semaglutide covariate [5]: 3.19
ka when co-administered with semaglutide [6]: 0.986 h⁻¹
ktr when co-administered with semaglutide [6]: 1.52 h⁻¹
ktr (Placebo), Estimates (transit compartment rate constant, without semaglutide): 7.3 h⁻¹ and 7.28 h⁻¹
decrease of ka when co-administered with semaglutide (with vs without semaglutide): 83%
decrease of ktr when co-administered with semaglutide (with vs without semaglutide): 79%
ka [1]: 3.5 h^‐1

CC(=O)Nc1ccc(O)cc1 [paracetamol]
alteration in paracetamol AUC0‐5h [2]: no significant alteration
ka [3]: 4.33 h⁻¹
V1/F [3, 7]: 30.7 L
V2/F [3, 7]: 19.9 L
